Laboratory results as given in US9458153B2, “Dihydroquinolizinones for the treatment and prophylaxis of hepatitis B virus infection” (Hoffmann-La Roche Inc., priority 2014, dated 2016).

Tested on: HBsAg
Assay: HBsAg assay (chemiluminescence immunoassay of secreted HBsAg in HepG2.2.15 culture supernatant)
Format: cell-based, HBV
Settings: HBsAg secretion reduced by 50% vs no drug control; HepG2.2.15 cells; CLIA kit
Procedure: HepG2.2.15 cells (Acs et al. Proc Natl Acad Sci USA, 84, (1987), 4641-4), a constitutively HBV-expressing cell line were cultured in DMEM+Glutamax-I medium (Invitrogen, Carlsbad, Calif., USA), supplemented with 10% fetal bovine serum (Invitrogen) and G418 (Invitrogen) at a final concentration of 200 mg/L and maintained in 5% CO2 at 37° C.
HepG2.2.15 cells were seeded in duplicate into white, 96-well plates at 1.5×10^4 cells/well. The cells were treated with a three-fold serial dilution series of the compounds in DMSO. The final DMSO concentration in all wells was 1% and DMSO was used as no drug control.
The HBsAg chemiluminescence immunoassay (CLIA) kit (Autobio Diagnostics Co., Zhengzhou, China, Catalog number: CL0310-2) was used to measure the levels of secreted HBV antigens semi-quantitatively. For the detection 50 μL/well culture supernatant was used and HBsAg was quantified using HBsAg chemiluminescence immunoassay (CLIA) kit (Autobio Diagnostics Co., Zhengzhou, China, Catalog number: CL0310-2), 50 μL of the supernatant was transferred to the CLIA assay plate and 50 μL of enzyme conjugate reagent was added into each well. The plates were sealed and gently agitated for 1 hour at room temperature. The supernatant-enzyme-mixture was discarded and wells were washed 6 times with 300 μL of PBS. The residual liquid was removed by plating the CLIA plate right side down on absorbent tissue paper. 25 μL of substrates A and B were added to each well. Luminance was measured using a luminometer (Mithras LB 940 Multimode Microplate Reader) after 10 minutes incubation. Dose-response curves were generated and the IC50 value was extrapolated by using the E-WorkBook Suite (ID Business Solutions Ltd., Guildford, UK).
The compounds of the present invention were tested for their capacity to inhibit HBsAg as described herein.

Compared with `CCC1Cc2cc(OCc3ccccc3)c(OC)cc2-c2cc(=O)c(C(=O)O)cn21` (single isomer, unassigned; (+)) [Example 9, (+)-9-benzyloxy-6-ethyl-10-methoxy-2-oxo-6,7-dihydrobenzo[a]quinolizine-3-carboxylic acid], `CCC1Cc2cc(OCc3ccccc3)c(C)cc2-c2cc(=O)c(C(=O)O)cn21` (single isomer, unassigned; (+)) [Example 116, (+)-9-benzyloxy-6-ethyl-10-methyl-2-oxo-6,7-dihydrobenzo[a]quinolizine-3-carboxylic acid] is 2.2-fold higher in IC50: 15 nM for the first, 33 nM for the second.

Compared with `CCC1Cc2cc(OCC(C)(C)CO)c(OC)cc2-c2cc(=O)c(C(=O)O)cn21` (single isomer, unassigned; (+)) [Example 23, (+)-6-ethyl-9-(3-hydroxy-2,2-dimethyl-propoxy)-10-methoxy-2-oxo-6,7-dihydrobenzo[a]quinolizine-3-carboxylic acid], `COc1cc2c(cc1OCC(C)(C)CO)CC(C(C)C)n1cc(C(=O)O)c(=O)cc1-2` (single isomer, unassigned; (+)) [Example 145, (+)-9-(3-hydroxy-2,2-dimethyl-propoxy)-6-isopropyl-10-methoxy-2-oxo-6,7-dihydrobenzo[a]quinolizine-3-carboxylic acid] is 2-fold lower in IC50: 12 nM for the first, 6 nM for the second.

Going from `CCC1Cc2cc(OCCOC)c(OC)cc2-c2cc(=O)c(C(=O)O)cn21` (single isomer, unassigned; (+)) [Example 28, (+)-6-ethyl-10-methoxy-9-(2-methoxyethoxy)-2-oxo-6,7-dihydrobenzo[a]quinolizine-3-carboxylic acid] to `CCC1Cc2cc(OCCCOC)c(OC)cc2-c2cc(=O)c(C(=O)O)cn21` (single isomer, unassigned; (+)) [Example 40, (+)-6-ethyl-10-methoxy-9-(3-methoxypropoxy)-2-oxo-6,7-dihydrobenzo[a]quinolizine-3-carboxylic acid], the IC50 falls from 29 nM to 13 nM (2.2-fold).

Going from `CCC1Cc2cc(OCC3CC3)c(OC)cc2-c2cc(=O)c(C(=O)O)cn21` (single isomer, unassigned; (+)) [Example 31, (+)-9-(cyclopropylmethoxy)-6-ethyl-10-methoxy-2-oxo-6,7-dihydrobenzo[a]quinolizine-3-carboxylic acid] to `CCC1Cc2cc(OCC3CCOCC3)c(OC)cc2-c2cc(=O)c(C(=O)O)cn21` (single isomer, unassigned; (+)) [Example 49, (+)-6-ethyl-10-methoxy-2-oxo-9-(tetrahydropyran-4-ylmethoxy)-6,7-dihydrobenzo[a]quinolizine-3-carboxylic acid], the IC50 rises from 9 nM to 15 nM (1.7-fold).

First: CCC1Cc2cc(OCC(C)C)c(OC)cc2-c2cc(=O)c(C(=O)O)cn21 (single isomer, unassigned; (+)) [Example 34, (+)-6-ethyl-9-isobutoxy-10-methoxy-2-oxo-6,7-dihydrobenzo[a]quinolizine-3-carboxylic acid]
Second: CCOc1cc2c(cc1OC)-c1cc(=O)c(C(=O)O)cn1C(CC)C2 (single isomer, unassigned; (+)) [Example 37, (+)-9-ethoxy-6-ethyl-10-methoxy-2-oxo-6,7-dihydrobenzo[a]quinolizine-3-carboxylic acid]
The IC50 of the first is 2-fold lower: 4 nM for the first, 8 nM for the second.

`CCOCCOc1cc2c(cc1OC)-c1cc(=O)c(C(=O)O)cn1C(CC)C2` (single isomer, unassigned; (+)) [Example 43, (+)-9-(2-ethoxyethoxy)-6-ethyl-10-methoxy-2-oxo-6,7-dihydrobenzo[a]quinolizine-3-carboxylic acid] and `CCC1Cc2cc(OCC(F)F)c(OC)cc2-c2cc(=O)c(C(=O)O)cn21` (single isomer, unassigned; (+)) [Example 46, (+)-9-(2,2-difluoroethoxy)-6-ethyl-10-methoxy-2-oxo-6,7-dihydrobenzo[a]quinolizine-3-carboxylic acid] are within 1.5-fold of each other in IC50: 46 nM for the first, 44 nM for the second.

First: COc1cc2c(cc1OC)-c1cc(=O)c(C(=O)O)cn1C(C)C2 (single isomer, unassigned; (+)) [Example 67, (+)-9,10-dimethoxy-6-methyl-2-oxo-6,7-dihydrobenzo[a]quinolizine-3-carboxylic acid]
Second: COc1cc2c(cc1OC)-c1cc(=O)c(C(=O)O)cn1C(CC(C)C)C2 (single isomer, unassigned; (+)) [Example 102, (+)-6-isobutyl-9,10-dimethoxy-2-oxo-6,7-dihydrobenzo[a]quinolizine-3-carboxylic acid]
The IC50 of the first is 9-fold higher: 380 nM for the first, 42 nM for the second.

Going from `CCC1Cc2cc(OC)c(C3CC3)cc2-c2cc(=O)c(C(=O)O)cn21` (single isomer, unassigned; (+)) [Example 90, (+)-10-cyclopropyl-6-ethyl-9-methoxy-2-oxo-6,7-dihydrobenzo[a]quinolizine-3-carboxylic acid] to `CCOc1cc2c(cc1Cl)-c1cc(=O)c(C(=O)O)cn1C(CC)C2` (single isomer, unassigned; (+)) [Example 118, (+)-10-chloro-9-ethoxy-6-ethyl-2-oxo-6,7-dihydrobenzo[a]quinolizine-3-carboxylic acid], the IC50 falls from 10 nM to 4 nM (2.5-fold).

`COCCOc1cc2c(cc1Cl)-c1cc(=O)c(C(=O)O)cn1C(CC(C)C)C2` (single isomer, unassigned; (+)) [Example 105, (+)-10-chloro-6-isobutyl-9-(2-methoxyethoxy)-2-oxo-6,7-dihydrobenzo[a]quinolizine-3-carboxylic acid] and `COCCOc1cc2c(cc1OC)-c1cc(=O)c(C(=O)O)cn1C(C(C)C)C2` (single isomer, unassigned; (+)) [Example 129, (+)-6-isopropyl-10-methoxy-9-(2-methoxyethoxy)-2-oxo-6,7-dihydrobenzo[a]quinolizine-3-carboxylic acid] are within 1.5-fold of each other in IC50: 16 nM for the first, 12 nM for the second.

First: COc1cc2c(cc1OCC(F)(F)F)CC(C(C)C)n1cc(C(=O)O)c(=O)cc1-2 (single isomer, unassigned; (+)) [Example 127, (+)-6-isopropyl-10-methoxy-2-oxo-9-(2,2,2-trifluoroethoxy)-6,7-dihydrobenzo[a]quinolizine-3-carboxylic acid]
Second: COc1cc2c(cc1OCC(F)F)CC(C(C)C)n1cc(C(=O)O)c(=O)cc1-2 (single isomer, unassigned; (+)) [Example 142, (+)-9-(2,2-difluoroethoxy)-6-isopropyl-10-methoxy-2-oxo-6,7-dihydrobenzo[a]quinolizine-3-carboxylic acid]
The IC50 of the first is 2-fold higher: 8 nM for the first, 4 nM for the second.

`COCCCOc1cc2c(cc1OC)-c1cc(=O)c(C(=O)O)cn1C(C(C)(C)C)C2` (single isomer, unassigned; (+)) [Example 132, (+)-6-tert-butyl-10-methoxy-9-(3-methoxypropoxy)-2-oxo-6,7-dihydrobenzo[a]quinolizine-3-carboxylic acid] and `COc1cc2c(cc1OCCCCCO)CC(C(C)(C)C)n1cc(C(=O)O)c(=O)cc1-2` (single isomer, unassigned; (+)) [Example 153, (+)-6-tert-butyl-9-(5-hydroxypentoxy)-10-methoxy-2-oxo-6,7-dihydrobenzo[a]quinolizine-3-carboxylic acid] are the same in IC50: 1 nM for the first, 1 nM for the second.

Compared with `COCCOc1cc2c(cc1OC)-c1cc(=O)c(C(=O)O)cn1C(C1(C)CC1)C2` (single isomer, unassigned; (+)) [Example 135, (+)-10-methoxy-9-(2-methoxyethoxy)-6-(1-methylcyclopropyl)-2-oxo-6,7-dihydrobenzo[a]quinolizine-3-carboxylic acid], `COc1cc2c(cc1OCC(C)(C)CO)CC(C(C)(C)C)n1cc(C(=O)O)c(=O)cc1-2` (single isomer, unassigned; (+)) [Example 150, (+)-6-tert-butyl-9-(3-hydroxy-2,2-dimethyl-propoxy)-10-methoxy-2-oxo-6,7-dihydrobenzo[a]quinolizine-3-carboxylic acid] is 2-fold lower in IC50: 4 nM for the first, 2 nM for the second. The second is the more potent here.

In the case of `COCCCOc1cc2c(c(Cl)c1F)-c1cc(=O)c(C(=O)O)cn1C(C(C)C)C2` (single isomer, unassigned; (+)) [Example 138, (+)-11-chloro-10-fluoro-6-isopropyl-9-(3-methoxypropoxy)-2-oxo-6,7-dihydrobenzo[a]quinolizine-3-carboxylic acid], the IC50 is reported as 9 nM.

Same assay, conditions: Hepatitis B virus, HepG2.2.15, HBsAg secretion reduced by 50% vs no drug control; HepG2.2.15 cells; CLIA kit

First: CC[C@@H]1[C@@H](C)c2cc(OCCOC)c(Cl)cc2-c2cc(=O)c(C(=O)O)cn21 (relative stereo) [Example 212A, (6R*, 7S*)-10-chloro-6-ethyl-9-(2-methoxyethoxy)-7-methyl-2-oxo-6,7-dihydrobenzo[a]quinolizine-3-carboxylic acid]
Second: CC[C@@H]1[C@H](C)c2cc(OCCOC)c(Cl)cc2-c2cc(=O)c(C(=O)O)cn21 (relative stereo) [Example 212B, (6R*,7R*)-10-chloro-6-ethyl-9-(2-methoxyethoxy)-7-methyl-2-oxo-6,7-dihydrobenzo[a]quinolizine-3-carboxylic acid]
The IC50 of the first is 11-fold higher: 330 nM for the first, 29 nM for the second.
